Source: patent US8796467B2, “Compounds” (Boehringer Ingelheim International GmbH, priority 2011, dated 2014)

Each compound was assayed against T1, human recombinant mGluR5 (Homo sapiens, UniProt P41594) (assay: Positive modulation of mGluR5, calcium based FLIPR assay in HEK 293 cell line). Conditions: EC50 of the modulation; HEK 293 cells expressing human recombinant mGluR5; glutamate at approximately 5% basal stimulation; peak height of Ca fluorescence signal.
T1 construct: expressed in transfected cells; hygromycin and geneticin selection, tetracycline-regulated
T1 sequence (P41594 21-1212): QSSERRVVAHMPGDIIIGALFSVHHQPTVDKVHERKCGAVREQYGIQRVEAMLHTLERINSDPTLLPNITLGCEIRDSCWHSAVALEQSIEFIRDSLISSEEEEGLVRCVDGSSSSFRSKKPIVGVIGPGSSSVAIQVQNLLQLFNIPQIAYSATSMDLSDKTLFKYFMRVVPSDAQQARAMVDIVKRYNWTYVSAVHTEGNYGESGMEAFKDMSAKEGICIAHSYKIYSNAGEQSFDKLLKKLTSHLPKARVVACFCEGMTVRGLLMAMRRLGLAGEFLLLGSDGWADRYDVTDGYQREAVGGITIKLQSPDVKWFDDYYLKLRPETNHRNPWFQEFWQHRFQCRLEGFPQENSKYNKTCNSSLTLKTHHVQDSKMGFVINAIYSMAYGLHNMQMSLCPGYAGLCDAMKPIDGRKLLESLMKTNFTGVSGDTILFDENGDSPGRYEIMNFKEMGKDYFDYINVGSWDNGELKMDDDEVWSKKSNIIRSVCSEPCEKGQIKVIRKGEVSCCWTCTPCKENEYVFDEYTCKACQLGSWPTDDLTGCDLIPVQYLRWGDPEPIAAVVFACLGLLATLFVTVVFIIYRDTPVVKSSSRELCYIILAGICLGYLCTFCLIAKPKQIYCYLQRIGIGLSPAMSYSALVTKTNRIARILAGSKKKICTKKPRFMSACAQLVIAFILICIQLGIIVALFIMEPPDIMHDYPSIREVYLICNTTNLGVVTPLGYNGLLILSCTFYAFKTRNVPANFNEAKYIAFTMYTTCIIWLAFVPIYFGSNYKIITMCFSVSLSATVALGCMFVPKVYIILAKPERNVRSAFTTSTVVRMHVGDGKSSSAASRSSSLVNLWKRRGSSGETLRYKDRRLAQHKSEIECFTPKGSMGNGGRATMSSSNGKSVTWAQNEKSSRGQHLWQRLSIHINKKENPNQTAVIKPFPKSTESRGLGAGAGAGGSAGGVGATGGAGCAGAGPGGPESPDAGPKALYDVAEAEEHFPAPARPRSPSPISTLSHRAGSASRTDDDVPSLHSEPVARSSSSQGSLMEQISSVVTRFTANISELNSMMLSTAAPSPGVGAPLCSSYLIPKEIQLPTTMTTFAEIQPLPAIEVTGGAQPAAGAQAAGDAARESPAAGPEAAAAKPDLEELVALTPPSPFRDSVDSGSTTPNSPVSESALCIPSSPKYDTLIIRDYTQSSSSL
Description: The positive modulation of mGluR5 is measured in a HEK 293 cell line expressing human recombinant mGluR5 and is detected with calcium based FLIPR assay. The cells are cultured with DMEM supplemented with 10% FCS, 2 μg/mL tetracycline, 100 μg/mL hygromycin and 500 μg/mL gneticin. The cell culture media is exchanged for tetracycline-free cell culture media 3-7 days before the assay. One day before the assay the cell culture medium is exchanged to DMEM without glutamine and phenol red and supplemented with 10% FCS, 100 μg/mL hygromycin and 500 μg/mL geneticin. On the assay day, the medium of the subconfluent cultures is removed and the cells are detached by addition of 2.5 ml EDTA (0.02%) per 175 cm2 culture flask for 1 minute. The cells are resuspend in Ringer solution (140 mM NaCl, 5 mM KCl, 2.5 mM CaCl2, 1.5 mM MgCl2, 5 mM Glucose, 10 mM Hepes; adjusted to pH 7.4 with NaOH), pooled and Ringer solution added to adjust the volume to 50 mL. The cell suspension is centrifuged for 5 min at 1500 U/min (425 g). The supernatant is removed and the cells washed a second time with 50 ml fresh Ringer solution and centrifuged again as before. The supernatant is again removed and the pellet resuspended in Ringer solution to 1,000,000 cells/ml (1×10^6 cells/mL). The cells are plated onto BD BioCoat Poly-D-Lysine 384 well plates (20,000 cells/well; 20 μl/well). The lid covered plates are then incubated until use at 37° C./10% CO2. For dye loading, 20 μl of Calcium-4 assay kit solution (prepared according to the manufacturer's description in Ringer solution) are added to the cells and the plates are incubated for 80 min 37° C. and then 10 min at room temperature.
Controls, Compound Dilution and Assay Execution:
Each assay plate contained wells with “high” and “low” controls: • Low controls 1% DMSO/ringer solution+basal glutamate activation (defined as 100% CTL). • High controls 10 μM CDPPB+basal glutamate activation (defined as 200% CTL).
Test compounds are dissolved and diluted in DMSO to 100-fold the desired concentrations. In a second step, the compounds are diluted in Ringer solution such that the compounds are 4-fold more concentrated than the desired final assay concentration. The final DMSO concentration was 1%.
20 μl of each compound solution are then transferred to the assay plate and the Ca2+ kinetic is measured to determine any intrinsic compound activity. After 5 min incubation in the FLIPR device, the second stimulation with 20 μl of glutamate in Ringer solution (glutamate concentration adjusted to approximately 5% basal stimulation of the maximal possible glutamate effect) is added and the kinetic Ca2+ response of the wells was measured for the modulation effect.
The peak height of the Ca release related fluorescence signal (9-66) is used for the EC50.
The EC50 of the modulation is calculated over a nonlinear regression with GraphPad Prism (Table 1).

First: CC(=O)Nc1nc2c(s1)CCN(C(=O)Cn1cc(-c3ccc(F)c(C)c3)nc1-c1ccccc1)CC2 [Example 7.01.28]
Second: Cc1nc2c(s1)CCN(C(=O)Cn1cc(-c3ccc(F)c(C)c3)nc1-c1ccccc1)CC2 [Example 7.01.01., 2-(4-(4-fluoro-3-methyl-phenyl)-2-phenyl-imidazol-1-yl)-1-(2-methyl-4,5,7,8-tetrahydro-thiazolo[4,5-d]azepin-6-yl)-ethanone]
The EC50 of the first is 8.5-fold higher: 769 nM for the first, 90 nM for the second.

First: Cc1nc2c(s1)CCN(C(=O)Cn1cc(-c3ccc(F)cc3)nc1-c1ccccc1)CC2 [Example 7.01.09.]
Second: Nc1nc2c(s1)CCN(C(=O)Cn1cc(-c3ccc(F)cc3)nc1-c1ccccc1)CC2 [Example 7.01.08.]
The EC50 of the first is 2.8-fold lower: 259 nM for the first, 738 nM for the second. The first is the more potent here.

First: Cc1cccc(-c2cn(CC(=O)N3Cc4nc(C)sc4C3)c(-c3ccccc3)n2)c1 [Example 7.01.19.]
Second: Cc1cccc(-c2cn(CC(=O)N3CCc4nc(C)sc4CC3)c(-c3ccccc3)n2)c1 [Example 7.01.20.]
The EC50 of the first is 5.4-fold higher: 574 nM for the first, 107 nM for the second.

Going from `Cc1nc2c(s1)CCN(C(=O)Cn1cc(-c3ccc(F)cc3)nc1-c1ccc(F)cc1)CC2` [Example 7.01.17.] to `Nc1nc2c(s1)CCN(C(=O)Cn1cc(-c3ccc(F)cc3)nc1-c1ccc(F)cc1)CC2` [Example 7.01.18.], the EC50 rises from 96 nM to 448 nM (4.7-fold). The first is the more potent here.

Compared with `Cc1cc(-c2cn(CC(=O)N3CCc4nc(N)sc4CC3)c(C3CCCCC3)n2)ccc1F` [Example 7.01.05.], `Cc1nc2c(s1)CCN(C(=O)Cn1cc(-c3ccc(F)c(C)c3)nc1C1CCCCC1)CC2` [Example 7.01.06.] is 1.9-fold lower in EC50: 623 nM for the first, 332 nM for the second.

`Cc1cc(-c2cn(CC(=O)N3CCN(c4ccccn4)C(=O)C3)c(-c3ccc(F)cc3)n2)ccc1F` [Example 7.01.26] and `Cc1cc(-c2cn(CC(=O)N3CCN(c4cc(F)ccn4)C(=O)C3)c(-c3ccc(F)cc3)n2)ccc1F` [Example 7.01.25] are within 1.5-fold of each other in EC50: 44 nM for the first, 42 nM for the second.

`Cc1cc(-c2cn(CC(=O)N3CCc4nc(N)sc4C3)c(-c3ccccc3)n2)ccc1F` [Example 7.01.27] and `Cc1cc(-c2cn(CC(=O)N3CCc4nc(N)sc4CC3)c(-c3ccccc3)n2)ccc1F` [Example 7.01.02.] are within 1.5-fold of each other in EC50: 172 nM for the first, 224 nM for the second.

Going from `Cc1nc2c(o1)CN(C(=O)Cn1cc(-c3ccc(F)c(C)c3)nc1-c1ccccc1)C2` [Example 7.01.33] to `Cc1nc2c(o1)CCN(C(=O)Cn1cc(-c3ccc(F)c(C)c3)nc1-c1ccccc1)C2` [Example 7.01.32], the EC50 falls from 127 nM to 61 nM (2.1-fold).

First: Cc1nc2c(s1)CCN(C(=O)Cn1cc(-c3ccc(F)c(C)c3)nc1C(C)C)CC2 [Example 7.01.10.]
Second: Cc1nc2c(s1)CCN(C(=O)Cn1cc(-c3ccc(F)c(C)c3)nc1-c1ccc(F)cc1)CC2 [Example 7.01.12.]
The EC50 of the first is 11-fold higher: 854 nM for the first, 78 nM for the second. The second is the more potent here.

Going from `Cc1cc(-c2cn(CC(=O)N3CCc4nc(N)sc4CC3)c(-c3ccc(F)cc3)n2)ccc1F` [Example 7.01.11.] to `Cc1nc2c(o1)CN(C(=O)Cn1cc(-c3ccc(F)c(C)c3)nc1-c1ccc(F)cc1)CC2` [Example 7.01.13.], the EC50 falls from 107 nM to 40 nM (2.7-fold). The second is the more potent here.

`Cc1cccc(-c2cn(CC(=O)N3CCc4nc(N)sc4CC3)c(-c3ccccc3)n2)c1` [Example 7.01.21.] and `Cc1cccc(-c2cn(CC(=O)N3CCc4nc(C)oc4C3)c(-c3ccccc3)n2)c1` [Example 7.01.22.] are within 1.5-fold of each other in EC50: 275 nM for the first, 250 nM for the second.

First: COc1cccc(N2CCN(C(=O)Cn3cc(-c4ccc(F)c(C)c4)nc3-c3ccc(F)cc3)CC2=O)c1 [Example 7.01.24]
Second: Cc1cc(-c2cn(CC(=O)N3CCN(c4cccc(C#N)c4)C(=O)C3)c(-c3ccc(F)cc3)n2)ccc1F [Example 7.01.23]
The EC50 of the first is 4.8-fold lower: 90 nM for the first, 431 nM for the second. The first is the more potent here.

First: Cc1nc2c(o1)CN(C(=O)Cn1cc(-c3ccc(F)c(C)c3)nc1-c1ccc(F)cc1)C2 [Example 7.01.34]
Second: Cc1nc2c(s1)CN(C(=O)Cn1cc(-c3ccc(F)c(C)c3)nc1-c1ccc(F)cc1)C2 [Example 7.01.14.]
The EC50 of the first is 1.6-fold higher: 101 nM for the first, 64 nM for the second.

Going from `Cc1nc2c(o1)CN(C(=O)Cn1cc(-c3ccc(F)c(C)c3)nc1C1CCCCC1)CC2` [Example 7.01.04.] to `Cc1nc2c(o1)CN(C(=O)Cn1cc(-c3ccc(F)c(C)c3)nc1-c1ccccc1)CC2` [Example 7.01.03.], the EC50 falls from 885 nM to 90 nM (9.8-fold).

First: Cc1nc2c(o1)CN(C(=O)Cn1cc(-c3ccc(F)cc3)nc1-c1ccccc1)CC2 [Example 7.01.07.]
Second: Cc1nc2c(o1)CN(C(=O)Cn1cc(-c3ccc(F)cc3)nc1-c1ccc(F)cc1)CC2 [Example 7.01.15.]
The EC50 of the first is 3.2-fold higher: 939 nM for the first, 297 nM for the second.

`Cc1cc(-c2cn(CC(=O)N3CCc4ncsc4CC3)c(-c3ccccc3)n2)ccc1F` [Example 7.01.30] and `Cc1nc2c(o1)CCN(C(=O)Cn1cc(-c3ccc(F)c(C)c3)nc1-c1ccccc1)CC2` [Example 7.01.29] are within 1.5-fold of each other in EC50: 150 nM for the first, 162 nM for the second.

Compared with `Cc1nc2c(s1)CN(C(=O)Cn1cc(-c3ccc(F)cc3)nc1-c1ccc(F)cc1)C2` [Example 7.01.16.], `Cc1nc2c(s1)CN(C(=O)Cn1cc(-c3ccc(F)c(C)c3)nc1-c1ccccc1)CC2` [Example 7.01.31] is 5.9-fold lower in EC50: 633 nM for the first, 108 nM for the second. The second is the more potent here.
